Assay results taken from publication PMC3472068, “Roles of the different components of magnesium chelatase in abscisic acid signal transduction” (Plant Molecular Biology, 2012).

Target: T1, CHLH (CHLH/ABAR) (Arabidopsis thaliana, UniProt Q9FNB0)
T1 construct: ORF in pFastBac HFT-B, Flag-tagged fusion, expressed in Sf9 insect cells; about 150 kDa; full length 1381 residues; amine-coupled on CM5 chip
T1 sequence (Q9FNB0 1-1381): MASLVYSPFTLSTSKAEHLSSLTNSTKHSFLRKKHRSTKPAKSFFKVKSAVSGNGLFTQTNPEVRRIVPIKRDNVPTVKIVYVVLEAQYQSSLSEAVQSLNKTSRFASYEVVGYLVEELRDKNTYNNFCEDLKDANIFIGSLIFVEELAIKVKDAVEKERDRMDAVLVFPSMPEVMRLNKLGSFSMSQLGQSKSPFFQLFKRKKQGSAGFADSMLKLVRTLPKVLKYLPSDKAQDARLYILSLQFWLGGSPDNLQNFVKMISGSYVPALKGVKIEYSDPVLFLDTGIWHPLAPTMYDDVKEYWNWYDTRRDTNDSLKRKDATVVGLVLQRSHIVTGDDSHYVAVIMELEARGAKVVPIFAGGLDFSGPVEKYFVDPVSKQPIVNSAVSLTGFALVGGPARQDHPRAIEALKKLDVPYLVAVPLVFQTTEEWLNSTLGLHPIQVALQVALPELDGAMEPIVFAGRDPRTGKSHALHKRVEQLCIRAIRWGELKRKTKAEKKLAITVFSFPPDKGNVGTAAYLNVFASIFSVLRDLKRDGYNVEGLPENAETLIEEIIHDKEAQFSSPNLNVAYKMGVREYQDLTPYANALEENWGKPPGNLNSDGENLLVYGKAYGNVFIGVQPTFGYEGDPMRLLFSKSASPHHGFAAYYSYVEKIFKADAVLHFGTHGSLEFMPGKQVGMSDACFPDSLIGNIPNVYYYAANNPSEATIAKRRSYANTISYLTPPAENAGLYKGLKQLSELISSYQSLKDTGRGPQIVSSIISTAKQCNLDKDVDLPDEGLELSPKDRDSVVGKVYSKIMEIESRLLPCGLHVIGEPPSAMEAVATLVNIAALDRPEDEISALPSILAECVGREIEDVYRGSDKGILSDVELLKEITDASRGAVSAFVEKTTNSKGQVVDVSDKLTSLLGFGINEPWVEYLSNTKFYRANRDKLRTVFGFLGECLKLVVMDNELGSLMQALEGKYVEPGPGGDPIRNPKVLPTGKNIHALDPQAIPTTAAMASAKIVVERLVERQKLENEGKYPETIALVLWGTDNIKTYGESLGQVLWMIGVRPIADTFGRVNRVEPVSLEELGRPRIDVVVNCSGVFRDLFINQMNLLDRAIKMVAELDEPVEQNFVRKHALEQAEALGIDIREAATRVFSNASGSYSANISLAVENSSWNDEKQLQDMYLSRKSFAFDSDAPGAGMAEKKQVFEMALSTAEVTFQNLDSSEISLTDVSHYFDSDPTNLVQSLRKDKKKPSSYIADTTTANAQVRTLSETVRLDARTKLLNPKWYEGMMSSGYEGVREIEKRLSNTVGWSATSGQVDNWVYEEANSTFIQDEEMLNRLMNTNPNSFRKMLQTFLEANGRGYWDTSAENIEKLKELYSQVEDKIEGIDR
Assay: SPR (Biacore T200, CM5 chip, protein immobilized by amine coupling), steady-state fit
Format: binding
Settings: HBS-EP running buffer with EDTA, pH 7.4, 25 °C, 6-100 μM analyte; unreliable (authors attribute the low affinity to technical limits of SPR)

Kd: 20 µM
SMILES: CC1=CC(=O)CC(C)(C)C1(O)/C=C/C(C)=C\C(=O)O (stereo in doubt) [(+)-ABA]
